# Experimental data published in US20210163453A1, “DERIVATIVES OF PAPAVERINE THAT ARE EFFECTIVE HYPOXIC TUMOR RADIOSENSITIZERS” (Ohio State Innovation Foundation, priority 2018, published 2021).
# Experiments:
# A549 flank xenografts = assay: Tumor growth delay of A549 flank xenografts with radiation (XRT); assay type: in vivo, mice
# Protocol: Curves represent mean tumor volumes+−SEM. P values were calculated against XRT with two-tailed two-sample t test. *P<0.05; **P<0.01; ***P<0.001; ****P<0.0001; n.s., not significant.
# Tumor Growth kinetics. 2×10^6 EO771 or 5×10^6 A549 cells were injected s.c. into the flanks of 6-week old female immunocompetent C57/B6 (EO771) or immunocompromised nu/nu (A549) mice. Caliper measurements of opposing diameter were used to calculate the tumor volumes. Upon reaching […], the tumors were visualized by cone beam CT and treatment plans calculated using SARRP software. X-rays were delivered with a single beam delivering 5 Gy using the Small Animal Research Radiation Platform (SARRP, Xstrahl). Tumor volumes were measured until the post treatment volume increased 3-fold. Error bars represent standard deviation.
# For the test of the A549 flank tumors, the tumors were treated similarly to the breast cancer model, but 8 Gy was used, and a treatment group added consisting of 8 Gy radiotherapy followed 30 minutes later by 2 mg/kg papaverine. The reverse schedule would indicate if the drug must be present before the radiation so that it would alter the tumor metabolism to make it more susceptible to the radiotherapy.
# C57BL/6 mice = assay: Acute toxicity, IV to isoflurane-anesthetized mice
# Protocol: Bar graphs represent the mean area covered by pimonidazole-positive cells evaluated from 20 images per animal+−standard error of the mean. P value was calculated against control with two-tailed two-sample t test. […] Mean volumes+−SEM. P values were calculated against XRT with two-tailed two-sample t test. *P<0.05; **P<0.01; ***P<0.001; ****P<0.0001; n.s., not significant.
# Reducing any possible adverse effects of PPV given to cancer patients if it is being used as a radiosensitizer are needed. PDE10A inhibition can cause systemic vascular effects which can result in a drop in blood pressure and increase in heart rate as vessels become more compliant. This acute drop in blood pressure produces a physiological compensation where the individual's heart rate and breathing rate rise to maintain tissue perfusion. If the effect on systemic vasculature was too great, this could lead to cardiovascular collapse and rapid death. Acute toxicity of PPV, SMV23 and SMV32 given IV to mice under anesthesia with 2% isoflurane was determined. Isoflurane delivered in medical air was used so that the effects on tumor oxygenation was reduced, although isoflurane can depress respiration and is typically given in 100% oxygen.
# [1] = system: NDUFV1 KO NDI1 flank tumors; assay: Pimonidazole staining, NDUFV1 KO NDI1 flank tumors; assay type: in vivo, mice; details: 2 mg/kg PPV
# Protocol: FIGS. 5A-5E show papaverine radiosensitizes through complex I inhibition. […] Values represent mean viable cells+−SD. […] Values are mean+−SD. […] P value was calculated with two-tailed two-sample t test. […] Curves represent mean tumor volumes+−SEM.
# Pimonidazole staining. Pimonidazole adducts were visualized in hypoxic regions within histological sections of tumor tissues (Kizaka-Kondoh, S. et al. Cancer science 100, 1366-1373 (2009)). Immune-deficient mice bearing EO771 and A549 flank xenografts were treated with 2 mg/kg PPV or saline and 60 mg/kg pimonidazole administered I.P. at 30 minutes and tumors harvested at 90 minutes. Tumor sections were stained with anti-pimonidazole rabbit antisera and anti-rabbit Alexa Fluor 488 secondary antibody. The hypoxic fraction of each tumor was quantified by thresholding signal at 50% of the maximum signal on control sections. Area covered by pimonidazole-positive cells was evaluated from 20 images per animal and averaged. Error bars represent the standard deviation.
# MP2 tumors = assay: ODD-luciferase in vivo oxygen reporter (bioluminescence imaging); set-up: species or system mice; details: orthotopic MP2 CMVluc tumors
# Excerpt: FIGS. 14A-14E summarize results obtained using ODD-luciferase as an in vivo oxygen reporter. […] (n=3-4, P<0.05).
# Use of ODD-luciferase as an in vivo oxygen reporter. We have fused the oxygen dependent degradation domain (ODD) of the HIF1a protein to the luciferase reporter protein. This fusion protein is expressed in tumor cells and is stable and reports well in hypoxia, but is destroyed by cellular machinery when cells are well oxygenated (FIG. 14A). These cells were used to grow tumors in immune-deficient mice and the animals were exposed either 95% oxygen/5% CO2 (carbogen) or medical air and the tumor bioluminescence imaged by IVIS 30 minutes post injection. Increasing oxygen breathing decreases reporter signal (FIG. 14B). These animals were then treated with either papaverine or vehicle (FIG. 14C) or SMV32 or vehicle (FIG. 14E).
# cell lines of Table 1 = assay: Cell lines tested for sensitivity to PPV (mitochondrial function); assay type: cell-based, Human, Murine, Canine; details: 29 cell lines: breast, colon, leukemia, lung, normal, osteosarcoma, pancreas, pharynx, tongue
# Protocol: Seahorse analysis of the OCR. Oxygen consumption rate (OCR) was measured using Seahorse XF96 Flux Analyzer (Agilent Technologies). The cells were seeded to attach overnight, wells were washed with pre-warmed XF Calibrant (Agilent Technologies) and the replaced with unbuffered Assay Medium (pH 7.4, 5 mM glucose, 1 mM L-glutamine). The plates were incubated at 37° C. in a CO2-free incubator for 2 hours prior to assay. For succinate rescue assay, cells were permeabilized using XF Plasma Membrane Permeabilizer Reagent (XF PMP, Agilent Technologies) according to the manufacturer's instructions. The OCR rate was measured in 1× Mitochondrial Assay Solution (MAS) (70 mM sucrose, 220 mM mannitol, 10 mM KH2PO4, 5 mM MgCl2, 2 mM Hepes, 0.6% (w/v) fatty acid-free BSA and 1 mM EGTA; pH 7.4). After baseline oxygenation was established, 1 μM rotenone or 10 μM PPV was injected at time A, followed by 5 mM succinate at time B. Error bars represent standard deviation. For the washout experiment, EO771 cells were seeded overnight, then treated with 10 μM PPV or 1 μM rotenone 3 hours prior to OCR measurement. Media was replaced 1 and 2 hours before measurement and OCR reported.
# PPV was tested in vitro to determine if it could decrease mitochondrial function in all cells tested in minutes at low micromolar concentrations (Table 1, FIG. 1A).
# mitochondrial function = details: cited from earlier work
structure (smiles),measurement,setting,value
"COc1ccc(Cc2nccc3cc(OC)c(OC)cc23)cc1OC [PPV, papaverine]",effect of drug after XRT on growth delay,A549 flank xenografts; 2 mg/kg after 8 Gy,did not have any effect compared to radiation alone
same,effect of drug before XRT on growth delay,A549 flank xenografts; 2 mg/kg before 8 Gy,enhances tumor growth delay
same,increase in tumor growth delay compared to XRT alone,A549 flank xenografts; 2 mg/kg before 8 Gy,greater than 3 fold
same,increase in tumor growth delay compared to XRT alone,"A549 flank xenografts; 2 mg/kg before 8 Gy, listed as papaverine",2.1-3.9 fold
same,time to death after delivery,C57BL/6 mice; 6 mg/kg IV bolus,≤ 5 min
same,Survivors,"C57BL/6 mice; 6 mg/kg IV, 2% isoflurane in medical air",0/3
same,acute toxicity,"C57BL/6 mice; rapid 6 mg/kg IV bolus, isoflurane-anesthetized mice","toxic, with significant gasping of mice, convulsions and death"
same,hypoxic fraction by pimonidazole,[1],no decrease of the hypoxic fraction
same,CMV luciferase (non-hypoxia responsive) control signal,MP2 tumors,did not show any change
same,sensitivity to PPV,cell lines of Table 1,List of cell lines positively tested for sensitivity to PPV
same,growth of cells in media containing only galactose,mitochondrial function,slow the growth of cells
